Assays:
RAMOS = test: RAMOS_V2_IC50; assay type: cell-based; conditions: Homo sapiens
human whole blood = test: IC50: human whole blood; assay type: cell-based
[1] = target: T1, recombinant human SYK360-635 (Homo sapiens, UniProt P43405); test: SYK kinase assay, 33P ATP filtration (ENZYME_FILTRATION_IC50); assay type: biochemical; conditions: SYK aa 360-635 0.5 nM, ATP 20 μM, peptide 5 μM, 30° C. 15 min
T1 construct: truncated construct of Spleen Tyrosine Kinase aa 360-635; made in house
Procedure: Determination of IC50 of Spleen Tyrosine Kinase (SYK) Inhibition:
SYK kinase assay is a standard kinase assay adapted to a 96 well plate format. This assay is performed in 96-well format for IC50 determination with […] which represented 10 half log dilutions and a 40 μL reaction volume. The assay measures the incorporation of radiolabeled ^33P ATP into an N-terminally biotinylated peptide substrate, derived from naturally occurring phosphoacceptor consensus sequence (Biotin-11aa DY*E). Phosphorylated products were detected upon termination of reactions with EDTA and the addition of Streptavidin coated beads. Representative results are in Table II above.
Assay plates: 96-well MultiScreen 0.65 um filter plates (Millipore Cat. No.: MADVNOB10) Streptavidin coated beads: Streptavidin Sepharose™, suspension 5.0 mL, in 50 mM EDTA/PBS diluted (1:100), (Amersham, Cat. No.: 17-5113-01)
Compounds: 10 mM in 100% dimethylsulfoxide (DMSO), final conc.: compound 0.003-100 uM in 10% DMSO
Enzyme: SYK RPA purified, truncated construct of Spleen Tyrosine Kinase aa 360-635, stock solution 1 mg/mL, MW: 31.2 KDa, final conc.:0.0005 μM.
Peptide 1: biotinylated peptide is derived from a naturally occurring phosphor-acceptor consensus sequence (Biotin-EPEGDYEEVLE), special order from QCB, stock solution 20 mM, final conc.: 5.0 μM.
ATP: Adenosine-5′-triphosphate 20 mM, (ROCHE Cat. No.: 93202720), final concentration: 20 μM
Buffer: HEPES: 2-Hydroxyethyl piperazine-2-ethanesulfonic acid (Sigma, Cat. No.: H-3375) final concentration: 50 mM HEPES pH7.5
BSA: Bovine Serum Albumin Fraction V, fatty acid free (Roche Diagnostics GmbH, Cat. No. 9100221) diluted to a final concentration of 0.1%
EDTA: EDTA stock solution 500 mM, (GIBCO, Cat. No.: 15575-038) final concentration: 0.1 mM
DTT: 1,4-Dithiothreitol (Roche Diagnostics GmbH, Cat. No.: 197777), final conc.: 1 mM MgCl2×6H2O: MERCK, Cat. No.: 105833.1000, final concentration: 10 mM
Assay Dilution Buffer (ADB): 50 mM HEPES, 0.1 mM EGTA, 0.1 mM Na Vanadate, 0.1 mM β-glycerophosphate, 10 mM MgCl2, 1 mM DTT, 0.1% BSA, pH 7.5
Bead wash buffer: 10 g/L PBS (Phosphate buffered saline) with 2M NaCl+1% phosphoric acid.
In 40 μL volume, 26 μL of ADB diluted, purified recombinant human SYK360-635 [0.5 nM] was mixed with 4 μL of 10× concentrations of the test compounds, [usually 100 μM-0.003 μM] in [10%] DMSO and the mixture was incubated for 10 min at RT.
The kinase reaction was initiated by the addition of 10 μL 4× substrate cocktail containing the DYE peptide substrate [0 or 5 μM], ATP [20 μM] and ^33PγATP [2 μCi/rxn]. After incubation at 30° C. for 15 min, the reaction was terminated by the transfer of 25 μL pf the reaction sample to a 96 well 0.65 μm Millipore MADVNOB membrane/plate containing 200 μL 5 mM EDTA and 20% Streptavidine coated beads in PBS.
The unbound radionucleotides were washed under vacuum with 3×250 μL 2M NaCl; 2×250 μL 2M NaCl+1% phosphoric acid; 1×250 μL H2O. After the last wash membrane/plates were transferred to an adaptor plate, heat dried for 15 min at 60° C., and 50 μL scintillation cocktail was added to each well and 4 h later the amount of radioactivity was counted in a top counter.
The percent inhibition was calculated based on the uninhibited enzyme rate: % Inhibition=100/(1+(IC50/Inhibitor conc)^n)
The IC50 was calculated using a non-linear curve fit with XLfit software (ID Business Solution Ltd., Guilford, Surrey, UK).

Row | SMILES | IC50 (RAMOS) | IC50 (human whole blood) | IC50 [1]
1 | CC(C)(C)NC(=O)c1c[nH]nc1-c1nc2ccccc2s1 [Compound I-8, 3-(benzo[d]thiazol-2-yl)-N-tert-butyl-1H-pyrazole-4-carboxamide] | 0.146 µM | 46.7 µM | 67 nM
2 | C[C@@H](CO)NC(=O)c1c[nH]nc1-c1nc2ccccc2s1 [Compound I-12, (S)-3-(benzo[d]thiazol-2-yl)-N-(1-hydroxypropan-2-yl)-1H-pyrazole-4-carboxamide] | 4.07 µM | 13.1 µM | 1690 nM
3 | CCOC(=O)c1c[nH]nc1-c1nc(-c2ccccc2)cs1 [Compound I-13, ethyl 3-(4-phenylthiazol-2-yl)-1H-pyrazole-4-carboxylate] | > 34.1 µM | > 50 µM | > 10000 nM
4 | CC(C)(C)NC(=O)c1c[nH]nc1-c1nc(-c2ccccc2)cs1 [Compound I-16, N-tert-butyl-3-(4-phenylthiazol-2-yl)-1H-pyrazole-4-carboxamide] | 12.2 µM | > 50 µM | 2410 nM
5 | CC(C)NC(=O)c1c[nH]nc1-c1nc(-c2ccccc2)cs1 [Compound I-17, N-isopropyl-3-(4-phenylthiazol-2-yl)-1H-pyrazole-4-carboxamide] | 3.54 µM | > 50 µM | 761 nM
6 | CC(C)(C)NC(=O)c1c[nH]nc1-c1nc2c(s1)CCC2 [Compound I-18, N-tert-butyl-3-(5,6-dihydro-4H-cyclopenta[d]thiazol-2-yl)-1H-pyrazole-4-carboxamide] | > 34.1 µM | > 50 µM | 6120 nM
7 | O=C(NC1CCOCC1)c1c[nH]nc1-c1nc(-c2ccccc2)cs1 [Compound I-21, 3-(4-phenylthiazol-2-yl)-N-(tetrahydro-2H-pyran-4-yl)-1H-pyrazole-4-carboxamide] | 19.1 µM | > 50 µM | 209 nM
8 | Cc1ccc2[nH]c(-c3ncsc3C(=O)NC(C)(C)C)nc2c1 [Compound I-29, 4-(5-Methyl-1H-benzoimidazol-2-yl)-thiazole-5-carboxylic acid tert-butylamide] | 1.52 µM | 10.4 µM | 46.6 nM
9 | CC(C)C(=O)Nc1c[nH]nc1-c1nc2ccccc2[nH]1 [Compound I-30, N-[3-(1H-Benzoimidazol-2-yl)-1H-pyrazoll-4-yl]-isobutyramide] | 1.02 µM | 2.29 µM | 60 nM
10 | CC(C)(C)C(=O)Nc1c[nH]nc1-c1nc2ccccc2[nH]1 [Compound I-31, N-[3-(1H-Benzoimidazol-2-yl)-1H-pyrazol-4-yl]-2,2-dimethyl-propionamide] | 0.35 µM | 2.6 µM | 21.4 nM
11 | O=C(Nc1c[nH]nc1-c1nc2ccccc2[nH]1)C1CCCC1 [Compound I-32, Cyclopentanecarboxylic acid [3-(1H-benzoimidazol-2-yl)-1H-pyrazol-4-yl]-amide] | 0.615 µM | 5.27 µM | 38.9 nM
12 | O=C(Nc1c[nH]nc1-c1nc2ccccc2[nH]1)C1CCOCC1 [Compound I-33, Tetrahydro-pyran-4-carboxylic acid [3-(1H-benzoimidazol-2-yl)-1H-pyrazol-4-yl]-amide] | 3.08 µM | 2.5 µM | 105 nM
13 | CC(=O)OCC(C)(C)C(=O)Nc1c[nH]nc1-c1nc2ccccc2[nH]1 [Compound I-34, Acetic acid 2-[3-(1H-benzoimidazol-2-yl)-1H-pyrazol-4-ylcarbamoyl]-2-methyl-propyl ester] | 6.57 µM | 4.17 µM | 278 nM
14 | CC(C)(CO)C(=O)Nc1c[nH]nc1-c1nc2ccccc2[nH]1 [Compound I-35, N-[3-(1H-Benzoimidazol-2-yl)-1H-pyrazol-4-yl]-3-hydroxy-2,2-dimethyl-propionamide] | 0.92 µM | 1.92 µM | 54.9 nM

— patent US9988378B2, “1 H-pyrazole and 4,5-disubstituted thiazole inhibitors of SYK” (Hoffmann-La Roche Inc., priority 2012, dated 2018)
